Measurements taken from patent publication US12517131B2, “Methods for labeling eukaryotic cells from a multicellular organism as well as for treating and/or diagnosing a cancer using modified monosaccharide compounds” (DIAMIDEX, priority 2019, dated 2026).

Tests used:
Assay in all cases: Labeling of cancer and non-cancer cells, fluorescence signal ratio
Assay type in all cases: cell-based, human
KCL22 (vs Lymphocytes) = conditions: KCL22 (24 h) vs Lymphocytes (24 h); Ara-N3 10 mM; FBS 10%; one doubling time
Description: (§1) The fluorescence Assimilation of Ara-N3 probes was visualized by copper-free click chemistry using sulfo-DBCO-biotin (1 mM), followed by labeling with a mouse anti-biotin Alexa Fluor 488 antibody conjugate (0.62 mg/ml stock, Jackson ImmunoResearch, dilution 1/10). The click reaction was carry-out as following: At 24 h incubation times, the culture mediums were removed, and attached cells were washed twice with PBS. Cells were detached with Tryp-LE, washed twice with PBS, and centrifuged at 13000 g for 2 min. The cellular pellets were resuspended with 10 μL of sulfo-DBCO-biotin and incubated 30 min in the dark, and at 37 C°. Then, cells were washed twice with PBS, centrifuged, and cellular pellets were resuspended with 10 μL of a mouse anti-biotin antibody solution, before to be incubated at room temperature in dark. Thereafter, cells were washed twice with PBS and small cellular suspension spots (5 μL) were put in Polysine® adhesion slides (VWR international S.A.S), in the dark room, until dry (20 min). The spots were fixed with 4% paraformaldehyde during 20 min, in dark and room temperature. Slides were then washed twice with PBS, before recovering with square cover glasses (VWR international S.A.S) using glycerol Mounting Medium (Dako) and stored at 4° C. in dark room.
(§2) The fluorescence acquisition was recorded using Olympus Microscopy IX83 (Olympus Life Science) equipped with a 60×/1.3 […]/1.4 SRI (silicone refractive index) objective, and Hamamatsu oreca flash 4 LT camera with 109 nm/pixel calibrated pixel size. The excitation light was emitted by X-CITE 120LED using the AT180/30X excited filter and signal was monitored using AT535/40m emission filter. Green light exposition time was 600 ms and white light exposition time was determined by DIC methods at […]. The acquisition area size analyzed by the Celisens dimension V1.16 software was different depending on the cell number containing in the spot.
(§3) The images were processed using count and measure unit of the Cellsens dimension V1.16 software. The background noise was deleted as follows: ROI were first defined on the background of the image and the average pixel intensity was calculated. The value thus obtained was subtracted from all pixels of the image. The fluorescence intensity of each cell was determined from a threshold set at a value of 3030. All pixels that have intensity below 3030 were not counted.
(§4) The same experiments as in example 2 with other cancer and corresponding non cancer cells were performed. The culture media were adapted to the tested cells and supplemented by 10% fetal bovine serum (FBS). Ara-N3 probe (10 mM) was added to culture media with FBS concentration (10%). The incubation times corresponded to one doubling time or twice doubling time of the tested cells (see table below).
(§5) The fluorescence signal cancer/non cancer ratios were calculated based on fluorescence intensities obtained with Ara-N3 tested on cancer and corresponding non cancer cells.

MDA MB175 (vs HME-1) = conditions: MDA MB175 (30 h) vs HME-1 (30 h); Ara-N3 10 mM; FBS 10%; one doubling time
Description: as §1, §2, §3, §4, §5

[1] = test system: AGS (vs Stomach epitelial cell); conditions: AGS (doubling time 30 h) vs Stomach epitelial cell (30 h); Ara-N3 10 mM; FBS 10%; test at 2 doubling time
Description: as §1, §2, §3, §4, §5

MDA MB453 (vs HME-1) = conditions: MDA MB453 (30 h) vs HME-1 (30 h); Ara-N3 10 mM; FBS 10%; one doubling time
Description: as §1, §2, §3, §4, §5

SK-BR-7 (vs HME-1) = conditions: SK-BR-7 (30 h) vs HME-1 (30 h); Ara-N3 10 mM; FBS 10%; one doubling time
Description: as §1, §2, §3, §4, §5

[2] = test system: OCI-Ly3 (vs Isolated primary B cells); conditions: OCI-Ly3 (24 h) vs Isolated primary B cells; Ara-N3 10 mM; FBS 10%
Description: as §1, §2, §3, §4, §5

A431 (vs Hacat) = conditions: A431 (30 h) vs Hacat (30 h); Ara-N3 10 mM; FBS 10%; one doubling time
Description: as §1, §2, §3, §4, §5

[3] = test system: THP1 (vs Monocytes/Macrophages); conditions: THP1 (26 h) vs Monocytes/Macrophages (26 h); Ara-N3 10 mM; FBS 10%; one doubling time
Description: as §1, §2, §3, §4, §5

[4] = test system: MDA-MB-231 (vs Breast epithelial cell); conditions: MDA-MB-231 (doubling time 40 h) vs Breast epithelial cell (40 h); Ara-N3 10 mM; FBS 10%; test at 2 doubling time
Description: as §1, §2, §3, §4, §5

HL-60 (vs Lymphocytes T) = conditions: HL-60 (28 h) vs Lymphocytes T (24 h); Ara-N3 10 mM; FBS 10%; one doubling time
Description: as §1, §2, §3, §4, §5

K562 (vs Lymphocytes T) = conditions: K562 (24 h) vs Lymphocytes T (24 h); Ara-N3 10 mM; FBS 10%; one doubling time
Description: as §1, §2, §3, §4, §5

[5] = test system: OCI-Ly10 (vs Isolated primary B cells); conditions: OCI-Ly10 (24 h) vs Isolated primary B cells; Ara-N3 10 mM; FBS 10%
Description: as §1, §2, §3, §4, §5

[6] = test system: HT29 (vs Colon epithelial cell); conditions: HT29 (doubling time 40 h) vs Colon epithelial cell (40 h); Ara-N3 10 mM; FBS 10%; test at 2 doubling time
Description: as §1, §2, §3, §4, §5

[7] = test system: BL-2 (vs Isolated primary B cells); conditions: BL-2 (24 h) vs Isolated primary B cells; Ara-N3 10 mM; FBS 10%
Description: as §1, §2, §3, §4, §5

PANC (vs HPNE) = conditions: PANC (32 h) vs HPNE (32 h); Ara-N3 10 mM; FBS 10%; one doubling time
Description: as §1, §2, §3, §4, §5

## [N-]=[N+]=NC[C@H]1OC(O)[C@@H](O)[C@@H]1O (stereo partly drawn) [Ara-N3, 5-azido-5-deoxy-D-arabinofuranose]
KCL22 (vs Lymphocytes)
  Cancer/Non Cancer Ratio (fluorescence signal): 4.9
MDA MB175 (vs HME-1)
  Cancer/Non Cancer Ratio (fluorescence signal): 2
[1]
  Cancer/Non Cancer Ratio (fluorescence signal): 2.9
MDA MB453 (vs HME-1)
  Cancer/Non Cancer Ratio (fluorescence signal): 2.2
SK-BR-7 (vs HME-1)
  Cancer/Non Cancer Ratio (fluorescence signal): 2.1
[2]
  Cancer/Non Cancer Ratio (fluorescence signal): 6.2
A431 (vs Hacat)
  Cancer/Non Cancer Ratio (fluorescence signal): 17.5
[3]
  Cancer/Non Cancer Ratio (fluorescence signal): 19.5
[4]
  Cancer/Non Cancer Ratio (fluorescence signal): 2.5
HL-60 (vs Lymphocytes T)
  Cancer/Non Cancer Ratio (fluorescence signal): 1.6
K562 (vs Lymphocytes T)
  Cancer/Non Cancer Ratio (fluorescence signal): 1.6
[5]
  Cancer/Non Cancer Ratio (fluorescence signal): 2.1
[6]
  Cancer/Non Cancer Ratio (fluorescence signal): 13.2
[7]
  Cancer/Non Cancer Ratio (fluorescence signal): 2.5
PANC (vs HPNE)
  Cancer/Non Cancer Ratio (fluorescence signal): 1.8
